Results: patent US9226891B2, “Anti-flush compositions” (Vitalis LLC, priority 2011, dated 2016)

Key:
[1] = GI-absorbed aspirin; cited from earlier work
[2] = system: flushing side effect of niacin; test: Example 1: flush rating on the Global Flush Severity Scale (GFSS) after niacin, with or without aspirin; format: in vivo, human; settings: for reduction of flush severity (GFSS) from Period I: vs niacin alone
Protocol: Healthy human patients were recruited for this study. […] Each patient was asked to rate his or her flush on the Global Flush Severity Scale (GFSS) (see FIG. 1 and Paolini et al. Int. J. Clin. Pract. 62(6):896-904 (2008)), when the flush completely resolved. The Global Flushing Severity Score measures, overall, in the previous 24 hours, how each patient rates the flushing symptoms, including redness, warmth, tingling, and itchiness of the skin. […] After the flush completely resolved, then each patient recorded his or her GFSS flush rating. Not until at least two days later did Period III start. At Period III, each patient was asked to not swallow the orally administered aspirin (81 mg) but to allow the aspirin to be absorbed through the oral mucosa. The aspirin was in powdered form and the remaining aspirin in the mouth was washed out with water. […] Still, the flush was rated (GFSS) after it was resolved. […] The flush was then rated (GFSS) after it completely resolved.

Question: Which “time to peak aspirin serum level following administration” value [1] does the source give for CC(=O)Oc1ccccc1C(=O)O [aspirin] here?
Answer: 15 to 20 min

Question: And the “reduction of flush severity (GFSS) from Period I” value (shortened to “reduction of flush severity”) ([2]; Period II: 81 mg aspirin swallowed + 500 mg niacin)?
Answer: 18%

Question: And the “Global Flush Severity Scale (GFSS) average score” value (shortened to “Global Flush Severity Scale”) ([2]; Period II: 81 mg aspirin swallowed, followed by 500 mg niacin)?
Answer: 6.88

Question: And the “Global Flush Severity Scale” value ([2]; Period III: 81 mg aspirin mucosally absorbed (not swallowed), then 500 mg niacin)?
Answer: 5.06

Question: And the “reduction of flush severity” value ([2]; Period III: 81 mg aspirin mucosally absorbed + 500 mg niacin)?
Answer: 40%

Question: And the “Global Flush Severity Scale” value ([2]; Period IV: 81 mg aspirin half mucosally absorbed and half swallowed, then 500 mg niacin)?
Answer: 3.94

Question: What about the “reduction of flush severity” value ([2]; Period IV: 81 mg aspirin half mucosally absorbed, half swallowed + 500 mg niacin) of the same compound?
Answer: 53%
